Data from US5955349A, “Compositions and methods for producing heterologous polypeptides in Pichia methanolica” (ZymoGenetics, Inc., priority 1996, dated 1999).

Tested on: P. methanolica cells (strain CBS6515, UV-mutagenized)
Test: Nystatin enrichment for auxotrophic mutants; titering of colony forming units versus control cells
Settings: 1 mg nystatin added to remainder (about 450 ml) of 500 ml culture in minimal broth with 5 g/L ammonium sulfate, one additional hour with shaking, versus untreated control cells
Protocol: Large-scale mutagenesis was then carried out using a 2-second UV exposure to provide about 20% killing. Cells were plated at approximately 10^4 cells/plate onto eight YEPD plates that were supplemented with 100 mg/L each of uracil, adenine, and leucine, which were added to supplement the growth of potential auxotrophs having the cognate deficiencies. Following UV exposure the plates were wrapped in foil and incubated overnight at 30° C. The following day the colonies on the plates (~10^5 total) were resuspended in water and washed once with water. An amount of cell suspension sufficient to give an OD600 of 0.1-0.2 was used to inoculate 500 ml of minimal broth made with yeast nitrogen base without amino acids or ammonia, supplemented with 1% glucose and 400 μg/L biotin. The culture was placed in a 2.8 L baffled Bell flask and shaken vigorously overnight at 30° C. The following day the cells had reached an OD600 of ~1.0-2.0. The cells were pelleted and resuspended in 500 ml of minimal broth supplemented with 5 g/L ammonium sulfate. The cell suspension was placed in a 2.8 L baffled Bell flask and shaken vigorously at 30° C. for 6 hours. […] The cultures were incubated with shaking for an additional hour. The control and nystatin-treated cells were then harvested by centrifugation and washed with water three times. […]

`C[C@@H]1[C@H](O)[C@@H](C)/C=C/C=C/CC/C=C/C=C/C=C/C=C/C(O[C@H]2O[C@H](C)[C@@H](O)[C@H](N)[C@@H]2O)CC2O[C@](O)(CC(O)C(O)CCC(O)CC(O)CC(O)CC(=O)O[C@H]1C)CC(O)C2C(=O)O` (stereo partly shown) [nystatin] was tested, and the “decrease in the number of viable cells (colony forming units), factor” value was 10^4.
